Data from article PMC10795798 (Journal of the American Chemical Society, 2023).

Biological target: T1, CYP199A4 (Rhodopseudomonas palustris, UniProt Q2IU02)
T1 sequence (Q2IU02 1-410): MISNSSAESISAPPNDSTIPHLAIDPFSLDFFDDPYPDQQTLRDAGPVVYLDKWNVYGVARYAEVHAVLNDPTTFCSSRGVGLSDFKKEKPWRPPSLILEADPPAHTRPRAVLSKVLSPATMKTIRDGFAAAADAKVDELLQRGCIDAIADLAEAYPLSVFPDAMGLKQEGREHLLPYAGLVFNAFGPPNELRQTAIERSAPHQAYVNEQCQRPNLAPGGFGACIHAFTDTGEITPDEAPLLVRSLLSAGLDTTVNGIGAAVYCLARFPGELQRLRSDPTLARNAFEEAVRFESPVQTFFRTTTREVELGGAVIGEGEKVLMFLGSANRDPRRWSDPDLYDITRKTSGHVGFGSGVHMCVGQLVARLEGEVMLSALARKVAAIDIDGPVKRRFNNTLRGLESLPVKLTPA
Experiment: UV-vis spectral titration
Format: binding

Kd: 140 ± 5 µM
Structure (SMILES): CC(=O)c1ccc(C(=O)O)cc1 [4-acetylbenzoic acid]
